Experimental data taken from patent publication US11154543B2, “P38 MAP kinase inhibitors for wound healing” (The Schepens Eye Research Institute, Inc., priority 2015, dated 2021).
Entries after “also recorded” stand apart in the source; their conditions may differ.

Legend:
Format in all cases: cell-based
[1] = system: human corneal fibroblasts (HCF); assay: αSMA western blot in human corneal fibroblasts ± TGF-β1; conditions: for αSMA protein expression in the presence of TGF-β1: inhibitor 24 h, then inhibitor + TGF-β1 24 h, Birb-796 10 μM, SB239063 20 μM, SB203580 5 uM, compared with HCF+TGF-β1; for αSMA expression (ratio of αSMA to β actin), TGF-β1-induced increase: serum-free, 10 uM inhibitor pre-treatment 24 h, then inhibitor + 2 ng/ml TGF-β1 24 h, compared with TGF-β1 alone (lane 2)
Procedure: FIG. 1 is an image of a representative western blot of human corneal fibroblasts cultured with 1) Basic Medium (BM: Eagles minimum essential medium) for 48 hours; 2) BM for 24 hours, then BM+TGF-β1 for 24 hours, 3) BM for 24 hours, then BM+p38 inhibitor for 24 hours, and 4) BM+p38 Inhibitor for 24 hours, then BM+p38 inhibitor+TGFβ1. Graph of SMA corrected per lane with internal control (β-actin).
FIG. 4 is a graph depicting analysis of αSMA protein expression in human corneal fibroblasts cultured with 1) Basic Medium (BM: Eagles minimum essential medium) for 48 hours; 2) BM for 24 hours, then BM+TGF-β1 for 24 hours, 3) BM for 24 hours, then BM+Birb-796 for 24 hours, 4) BM+Birb-796 for 24 hours, then BM+Birb-796+TGF-β1 for 24 hours; 5) BM for 24 hours, then BM+SB239063 for 24 hours; 6) BM+SB239063 for 24 hours, then BM+SB239063+TGF-β1 for 24 hours; 7) BM for 24 hours, then BM+SB203580 for 24 hours; and 8) BM+SB203580 for 24 hours, then BM+SB203580+TGF-β1 for 24 hours. Graph of SMA corrected per lane with internal control (β-actin).
The protocol for alpha smooth muscle actin (αSMA) testing in human corneal fibroblasts (HCF) is shown below using treatment with/without p38 inhibitor (SB202190) as an example treatment. • 1. Grow HCF (human corneal fibroblast cells) in 100 mm dishes (×12). • 2. When cells get 60-70% confluent, rinse with PBS for 3 times. Then: • a. Put serum-free EMEM to starve cells overnight. (9×) • b. Put serum-free EMEM with 10 uM of p38 inhibitor (SB202190) overnight to pre-treat cells. (3×) • 3. Next day, treat cells as follows and incubate overnight: • c. 10 ml of serum-free EMEM (3×) • d. 10 ml of serum-free EMEM with 2 ng/ml of TGF-β1. (3×) • e. 10 ml of serum-free EMEM with 10 uM of p38 inhibitor (SB202190). (3×) • f. 10 ml of serum-free EMEM with 10 uM of p38 inhibitor (SB202190) and 2 ng/ml of TGF-β1 into pre-treated dishes (2b). (3×) • 4. Harvest cells by trypsinization and store cells at −80° C.
Samples were lysed with RIPA buffer and western blot analysis was performed, as previously described (Chung E H, IOVS 1999; 40:1952-8) with minor changes. Membranes with separated proteins were probed with anti-αSMA (alpha-smooth muscle actin) and β-Actin (beta-actin) according to the protocol in Example 1. After reaction with corresponding DyLight secondary antibodies, membranes were scanned on Odyssey and software was used to measure the bands (ImageJ, v. 1.5), and the data was analyzed and plotted (Prism 5.0; GraphPad software).
The above protocol was utilized to assay αSMA expression in human corneal and skin fibroblasts under different culture conditions, including in the presence of p38 inhibitor. […] In FIG. 3, high levels of αSMA indicate that most dermal fibroblasts in culture were already myofibroblast cells (lane 1).
Three additional p38 inhibitors shown in Table 1 below were test in HCF. […] The concentrations of these three inhibitors were not optimized and it is believed that with higher concentration of these p38 inhibitors, αSMA expression will be decreased to a greater extent.

[2] = system: human dermal fibroblasts; assay: αSMA western blot in human dermal fibroblasts ± TGF-β1; conditions: BM+10% FBS, p38 inhibitor 24 h pre-treatment ± TGF-β1, compared with normal culture (lane 1) and T1 (lane 2)
Procedure: FIG. 3 is an image of a representative western blot of human dermal fibroblasts cultured with 1) Basic Medium (BM: Eagles minimum essential medium)+10% FBS for 48 hours; 2) BM+10% FBS for 24 hours, then BM+10% FBS+TGFβ1 for 24 hours, 3) BM+10% FBS for 24 hours, then BM+10% FBS+p38 inhibitor for 24 hours, and 4) BM+10% FBS+p38 Inhibitor for 24 hours, then BM+10% FBS+p38 inhibitor+TGF-β1. Graph of SMA corrected per lane with internal control (β-actin).
The protocol for alpha smooth muscle actin (αSMA) testing in human corneal fibroblasts (HCF) is shown below using treatment with/without p38 inhibitor (SB202190) as an example treatment. • 1. Grow HCF (human corneal fibroblast cells) in 100 mm dishes (×12). • 2. When cells get 60-70% confluent, rinse with PBS for 3 times. Then: • a. Put serum-free EMEM to starve cells overnight. (9×) • b. Put serum-free EMEM with 10 uM of p38 inhibitor (SB202190) overnight to pre-treat cells. (3×) • 3. Next day, treat cells as follows and incubate overnight: • c. […]
Samples were lysed with RIPA buffer and western blot analysis was performed, as previously described (Chung E H, IOVS 1999; 40:1952-8) with minor changes. […] After reaction with corresponding DyLight secondary antibodies, membranes were scanned on Odyssey and software was used to measure the bands (ImageJ, v. 1.5), and the data was analyzed and plotted (Prism 5.0; GraphPad software). […]

[3] = system: human corneal fibroblasts; assay: Indirect immunofluorescence of SMA in human corneal fibroblasts; conditions: HCF; p38 inhibitor 24 h, then p38 inhibitor + TGF-β1; compared with TGF-β1 alone (FIG. 2B)
Excerpt: FIGS. 2A-2D are representative indirect immunofluorescent images of human corneal fibroblasts. […] Grey stripes staining=SMA and grey dots staining=DAPI, a nuclear counterstain. […] This is in agreement with the western blot in FIG. 1.

[4] = system: human corneal 3-D constructs (HCF and their self-assembled matrix); assay: αSMA western blot in human corneal 3-D stromal constructs
Procedure: FIG. 6 includes a bar graph and a western blot showing analysis of αSMA expression in human corneal 3-D constructs. Human Corneal Fibroblasts (HCF) were cultured as follows: 1) RM (Regular Medium: Eagle's minimum essential medium+10% FBS for 9 days); 2) T1 (RM for 24 hours, then RM+2 ng/ml of TGF-beta (T1) for 8 days); 3) p38 inhibitor (p38inh) (RM for 24 hours, then RM+10 μM of p38 inhibitor [SB202190] for 8 days); and 4) T1+p38inh (RM+SB202190 for 24 hours, then RM+SB202190+TGF-1 for 8 days). Graph of αSMA corrected per lane with internal control (β-actin). […] The western blot is shown in the upper right corner.
Data shown in previous figures were generated using cells in culture. […] The system a cell-based 3-D corneal stromal construct containing human corneal fibroblasts (HCF) and their self-assembled matrix. This art-recognized model mimics stromal development and wound healing. To test this, we cultured human corneal fibroblasts (HCF) in 0.5 mM Vitamin C±2 ng/ml TGF-β1 (T1) and/or 10 μM p38 inhibitor #1 (SB202190) for 9 days. The media was changed every day. After 9 days, the samples were harvested and analyzed for αSMA by western blot (WB). […] The data also indicate that p38 inhibitor(s) inhibit scar formation during corneal wound healing.

[5] = system: human corneal myofibroblasts (T1-treated HCF); assay: Reversal of αSMA in TGF-β1-differentiated human corneal myofibroblasts (western blot); conditions: HCF pre-treated 2 ng/ml T1 for 3 days
Procedure: FIGS. 7A and 7B show analysis of αSMA expression in HCF cultured as follows: 1) HCF: RM, 2) T1: RM+T1 (for 3 days), or 3) RM+T1 for 3 days, then RM±p38inh for 1 (D1), 2 (D2), or 3 days (D3). (A) Representative western blot.
In this experiment, we examined if p38 inhibitor could not only reduce, but reverse αSMA levels, thus converting myofibroblasts back to their fibroblastic phenotype. To do this, HCF were treated with 2 ng/ml of T1 for 3 days. This allowed for the majority of the HCF to differentiate to their myofibroblastic phenotype with high levels of αSMA expression. After rinsing with PBS three times, these T1-treated cells were split into two groups: 1) regular medium (RM) and 2) p38 inhibitor (p38inh) medium. Media was changed every day. Cells were harvested after 1, 2, or 3 days for αSMA analysis by WB. […] The T1 cells then were split into two groups, RM or p38inh, and the appropriate medium was applied. […] On day 3 (D3), αSMA levels in both media samples decreased.

## Cc1ccc(-n2nc(C(C)(C)C)cc2NC(=O)Nc2ccc(OCCN3CCOCC3)c3ccccc23)cc1 [Birb-796, Doramapimod]
[1]
  αSMA protein expression in the presence of TGF-β1: significantly different

## Oc1ccc(-c2nc(-c3ccc(F)cc3)c(-c3ccncc3)[nH]2)cc1 [SB202190, 4-(4-Fluorophenyl)-2-(4-hydroxyphenyl)-5-(4-pyridyl)1H-imidazole]
[2]
  αSMA expression (corrected with β-actin): significantly decreased
[2]; listed as p38 inhibitor
  αSMA expression (corrected with β-actin): significantly different
[3]
  αSMA staining / number of SMA-positive cells: mitigated
[4]; 10 μM inhibitor + 2 ng/ml TGF-β1, 9 days (lane 4 vs lane 1)
  αSMA expression, T1 + p38 inhibitor versus control: decreased as compared with control
[4]; 10 μM inhibitor + 2 ng/ml TGF-β1, 9 days (lane 4 vs lane 2), p<0.001
  αSMA expression, T1 + p38 inhibitor versus T1: significantly lower than T1; also recorded: significantly different
[4]; 10 μM inhibitor, 9 days (lane 3), compared with control, p<0.05
  αSMA expression, p38 inhibitor alone: significantly decreased; also recorded: significantly lower than others
[5]; then p38inh medium 1 day, compared with T1 control
  αSMA levels on day 1 (D1): continued to increase
[5]; then p38inh medium 2 days, compared with RM sample, p<0.05
  αSMA levels on day 2 (D2): significantly lower than the RM sample; also recorded: decreased significantly
[5]; then p38inh medium 3 days, compared with RM sample
  αSMA levels on day 3 (D3): continued to be lower than that in the RM sample
[1]
  αSMA expression (ratio of αSMA to β actin), TGF-β1-induced increase: inhibits the TGF-β1 induced increase in expression of αSMA
[1]; listed as p38 inhibitor
  αSMA expression (ratio of αSMA to β actin), TGF-β1-induced increase: significantly different

## C[S+]([O-])c1ccc(-c2nc(-c3ccc(F)cc3)c(-c3ccncc3)[nH]2)cc1 (centres unmarked) [SB203580, 4-(4′-Fluorophenyl)-2-(4′-methylsulfinylphenyl)-5-(4′-pyridyl)-imidazole]
[1]
  αSMA protein expression in the presence of TGF-β1: significantly different

## COc1nccc(-c2c(-c3ccc(F)cc3)ncn2C2CCC(O)CC2)n1 (stereo not drawn) [SB239063, trans-1-(4-Hydroxycyclohexyl)-4-(4-fluorophenyl)-5-(2-methoxypyridimidin-4-yl)imidazole]
[1]
  αSMA protein expression in the presence of TGF-β1: significantly different
